Several values for one entry are separate records, joined by “and”; a condition that tells them apart may be missing. Identical values can stand only once. Counter-ions that a name gives are not always drawn. Like-named read-outs stand apart in the source and are kept apart here.
Assays:
Assay type in all cases: biochemical
[1] = ORAC-FL (oxygen radical absorbance capacity) assay; conditions: mean ± SEM, n = 3, 2 h, 10 μM compound and Trolox
Description: In the oxygen radical absorbance capacity (ORAC-FL) assay, 2,2′-azobis-(2-methylpropionamidine) dihydrochloride (AAPH) is used as a free peroxyl radical generator, and fluorescein (FL) is used as a fluorescent probe. The method is based on measuring the decrease in the intensity of fluorescence with time, which characterizes the degree of decay of the fluorescent probe under the influence of peroxyl radicals. In the presence of antioxidants, the degree of decay of the fluorescent probe decreases and, accordingly, the fluorescence intensity increases. The results are expressed as TE (Trolox equivalents).
The ORAC assay utilizes a biologically relevant radical source, 2,2′-azobis(2-amidinopropane) dihydrochloride (AAPH)-derived peroxyl radicals. Thus, it is a more physiologically relevant assay than ABTS and FRAP.
The oxygen radical absorbance capacity (ORAC) was determined by the ability of compounds to protect fluorescein (FL) from peroxyl radicals that are generated by AAPH according to the known method with minor variations. The reaction was carried out at 37 °C in black 96-well plates (SPL life sciences), and the final volume of the reaction mixture was 200 µL per well. The fluorescence was recorded by Tecan M1000 PRO microplate reader (Switzerland) at 485 nm excitation and 520 nm emission.
The 0.7 mM fluorescein sodium salt stock solution in PBS pH 7.4 (137 mM sodium chloride, 2.7 mM potassium chloride, and 10 mM phosphate buffer) was prepared and stored at 4–5 °C no longer than one month. An aliquot of the fluorescein stock solution was further diluted with PBS immediately before each assay to yield a 70 nM working solution. The 133 mM AAPH solution in PBS was prepared immediately before use. The test compounds and Trolox standard were dissolved in DMSO to 400 μM. The final concentration was 10 μM for all of the samples.
The blank was composed of 15 μL PBS pH 7.4, 5 μL DMSO (final concentration: 2.5% (v/v)), 120 μL FL, and 60 μL AAPH, and it was included in each assay. PBS pH 7.4 (15 μL), antioxidant (the test compound or Trolox, 5 μL), and FL (120 μL, final concentration: 42 nM) solutions were placed in a black 96-well microplate and were pre-incubated for 15 min at 37 °C. AAPH solution (60 μL, final concentration 40 mM) was then added rapidly using a multichannel pipette. The fluorescence was recorded every minute for 2 h. A Trolox standard curve was also obtained in each assay. All reactions were carried out in quadruplicate, and two to four independent assays were performed for each sample.
Antioxidant curves (fluorescence vs. time) were first normalized to the curve of the blank (without antioxidant) corresponding to the same assay, and the net AUC corresponding to a sample was calculated by subtracting the AUC corresponding to the blank. The ORAC value was obtained by dividing the latter curve by the Trolox curve obtained in the same assay at 10 μM concentrations of compounds and Trolox. Final ORAC values, Trolox equivalents (TE), were expressed as μmol test compounds per μmol Trolox, where the value of TE for Trolox was taken as 1. Data were expressed as means ± SEM.

[2] = target: T1, equine serum butyrylcholinesterase (BChE) (Equus caballus, UniProt P81908); experiment: Inhibition of BChE (Ellman's colorimetric assay); conditions: ± SEM, n = 3, 10 min incubation 25 °C
T1 construct: equine serum butyrylcholinesterase (BChE, EC 3.1.1.8); purchased Sigma-Aldrich (Saint Louis, MO, USA); host or cells: equine serum
T1 sequence (P81908 whole entry): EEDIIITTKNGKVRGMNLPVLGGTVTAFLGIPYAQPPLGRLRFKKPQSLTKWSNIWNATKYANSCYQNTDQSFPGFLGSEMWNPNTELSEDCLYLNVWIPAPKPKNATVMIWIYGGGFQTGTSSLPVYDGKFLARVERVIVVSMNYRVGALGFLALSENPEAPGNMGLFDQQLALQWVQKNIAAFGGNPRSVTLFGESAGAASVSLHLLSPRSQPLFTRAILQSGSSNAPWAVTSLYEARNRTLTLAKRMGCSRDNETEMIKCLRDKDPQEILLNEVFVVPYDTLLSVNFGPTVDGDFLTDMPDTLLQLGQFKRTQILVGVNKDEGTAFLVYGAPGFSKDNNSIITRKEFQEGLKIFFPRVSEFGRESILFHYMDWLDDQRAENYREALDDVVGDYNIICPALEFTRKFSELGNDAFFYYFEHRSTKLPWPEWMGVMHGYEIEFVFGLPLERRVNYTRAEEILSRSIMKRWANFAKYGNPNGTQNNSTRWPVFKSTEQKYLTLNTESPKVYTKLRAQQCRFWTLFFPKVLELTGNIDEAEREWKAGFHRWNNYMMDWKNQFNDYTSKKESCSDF
Description: (§1) Given the available literature data on the ability of pyrazole derivatives to inhibit acetylcholinesterase (AChE) and human carboxylesterase-1 (CES), we performed an investigation of the esterase profile for new compounds 1a–j and 4a–j, including an evaluation of their inhibitory effect on the standard enzymes set: human erythrocyte AChE, equine serum butyrylcholinesterase (BChE), and porcine liver CES (Table 2). The applicability of this set of enzymes was shown by us earlier.
(§2) Human erythrocyte acetylcholinesterase (AChE, EC 3.1.1.7), equine serum butyrylcholinesterase (BChE, EC 3.1.1.8), porcine liver carboxylesterase (CES, EC 3.1.1.1), acetylthiocholine iodide (ATCh), butyrylthiocholine iodide (BTCh), 4-nitrophenol acetate (4-NPA), and 5,5′-dithio-bis-(2-nitrobenzoic acid) (DTNB) were purchased from Sigma-Aldrich (Saint Louis, MO, USA).
(§3) All the kinetic experiments were performed under standard conditions, according to the protocol of IPAC RAS for a reversible inhibitors study.
(§4) Ellman’s colorimetric assay was used to measure AChE and BChE activity in 0.1 M K/Na phosphate buffer at pH 7.5, 25 °C [86]. Final concentrations of reactants were 0.33 mM DTNB, 0.02 unit/mL of AChE or BChE, and 1 mM of substrate (ATCh or BTCh, respectively). Reagent blanks consisted of reaction mixtures without enzyme to assess non-enzymatic hydrolysis of substrates. Porcine liver CES activity was assessed colorimetrically in 0.1 M K/Na phosphate buffer with pH 8.0 at 25 °C, by measuring the absorbance of 4-nitrophenol at 405 nm. Final enzyme and substrate (4-NPA) concentrations were 0.02 unit/mL and 1 mM, respectively. Reagent blanks included all constituents except enzyme.
(§5) Test compounds were dissolved in DMSO. Reaction mixtures contained a final DMSO concentration of 2% (v/v). Enzyme inhibition was first assessed at a single concentration of 20 µM for each compound after a 10 min incubation at 25 °C in three separate experiments. Compounds inhibiting the enzyme by more than 30% were then selected for determination of the IC50 (inhibitor concentration resulting in 50% inhibition of control enzyme activity). […] Substrate was then added, and residual enzyme activity relative to an inhibitor-free control was measured using a FLUOStar Optima microplate reader (LabTech, Ortenberg, Germany).

human erythrocyte AChE = target: T2, human erythrocyte AChE (Homo sapiens, UniProt P22303); experiment: Inhibition of AChE (Ellman's colorimetric assay); conditions: read-out: AChE % inhibition at 20 μM
T2 construct: Human erythrocyte acetylcholinesterase (AChE, EC 3.1.1.7); purchased Sigma-Aldrich (Saint Louis, MO, USA); host or cells: human erythrocytes
T2 sequence (P22303 32-617 isoform P22303-2 limits assumed): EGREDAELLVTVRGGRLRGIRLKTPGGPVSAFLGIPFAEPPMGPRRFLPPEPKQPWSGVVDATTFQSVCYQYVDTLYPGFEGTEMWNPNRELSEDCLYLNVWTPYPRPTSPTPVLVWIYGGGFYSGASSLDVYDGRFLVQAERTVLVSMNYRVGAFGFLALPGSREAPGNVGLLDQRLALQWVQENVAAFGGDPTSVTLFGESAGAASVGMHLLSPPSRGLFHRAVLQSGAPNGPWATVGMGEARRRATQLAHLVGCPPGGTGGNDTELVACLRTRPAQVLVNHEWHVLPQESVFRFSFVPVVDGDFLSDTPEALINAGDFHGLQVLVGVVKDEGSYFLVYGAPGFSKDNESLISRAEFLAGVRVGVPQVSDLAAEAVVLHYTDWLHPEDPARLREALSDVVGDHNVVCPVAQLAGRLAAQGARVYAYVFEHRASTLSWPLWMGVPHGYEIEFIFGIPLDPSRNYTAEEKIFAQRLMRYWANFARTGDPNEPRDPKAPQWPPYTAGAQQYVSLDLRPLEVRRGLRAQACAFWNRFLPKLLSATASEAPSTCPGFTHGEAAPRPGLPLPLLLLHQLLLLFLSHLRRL
Description: as §1, §2, §3, §4, §5

[3] = ORAC-FL (oxygen radical absorbance capacity) assay; conditions: mean ± SEM, n = 3; 2 h; read-out: ORAC-FL IC50 (compound concentration required for 50% reduction of peroxyl radical) (converted)
[4] = 20 μM, ± SEM, n = 3, 10 min incubation 25 °C

Molecule	ORAC-FL TE (Trolox equivalent) [1]	inhibition at 20 µM [2]	inhibition at 20 µM (human erythrocyte AChE)	ORAC-FL TE (Trolox equivalent) ([1]; listed as APH)	IC50 [3]	inhibition at 20 µM (human erythrocyte AChE; [4])	BChE % inhibition at 20 μM [2]
Cc1n[nH]c(O)c1N.Cl [4j, 4-Amino-3-methyl-1H-pyrazol-5-ol hydrochloride]	2.06 ± 0.16 TE	13.9 ± 1.6%					
Nc1c(C(F)(F)C(F)(F)C(F)(F)C(F)(F)F)nn(-c2ccccc2)c1O [4c, 5-Hydroxy-1-phenyl-3-(nonafluorobuthyl)-1H-pyrazol-4-ammonium hydrochloride]	2.82 ± 0.2 TE	10.3 ± 1.2%	19.2 ± 1.7%				
Cc1nn(-c2ccccc2)c(O)c1N.Cl.O [4d, 4-Amino-3-methyl-1-phenyl-1H-pyrazol-5-ol hydrochloride hydrate]	4.39 ± 0.04 TE	5.1 ± 1.3%	6.5 ± 1.2%	4.39 TE	6.85 µM		
Cl.Nc1c(C(F)(F)C(F)(F)C(F)(F)F)n[nH]c1O.O [4h, 4-Amino-3-(heptafluoropropyl)-1H-pyrazol-5-ol hydrate hydrochloride]	0.63 ± 0.04 TE	3.4 ± 0.9%					
Cl.Nc1c(C(F)(F)F)n[nH]c1O [4e, 4-Amino-3-(trifluoromethyl)-1H-pyrazol-5-ol hydrochloride]	0.90 ± 0.19 TE	5.6 ± 1.5%				9.7 ± 1.5%	
Cl.Nc1c(C(F)(F)C(F)(F)C(F)(F)C(F)(F)F)n[nH]c1O.O [4i, 4-Amino-3-(nonafluorobutyl)-1H-pyrazol-5-ol hydrate hydrochloride]	1.83 ± 0.02 TE		5.1 ± 0.9%				
Oc1cc(C(F)(F)F)nn1-c1ccccc1 [CF3-EDA, 3-trifluoromethyl-1-phenylpyrazol-5-ol, reference compound]	3.89 TE and 3.89 ± 0.04 TE				6.3 µM		
3-methyl-1-phenyl-2-pyrazolin-5-one [EDA, reference compound]	3.71 TE and 3.71 ± 0.06 TE				5.6 µM		4.6 ± 0.2%
Cl.Nc1c(C(F)(F)F)nn(-c2ccccc2)c1O [4a, 4-Amino-3-(trifluoromethyl)-1-phenyl-1H-pyrazol-5-ol hydrochloride]	3.49 TE and 3.49 ± 0.16 TE	6.9 ± 1.1%			8.8 µM	7.9 ± 1.5%	
CC1=NNC(=O)/C1=N\O [1j]	2.85 ± 0.28 TE	3.8 ± 1.3%					
Cl.Nc1c(C(F)(F)C(F)(F)F)nn(-c2ccccc2)c1O.O [4b, 4-Amino-3-(pentafluoroethyl)-1-phenyl-1H-pyrazol-5-ol hydrate hydrochloride]	2.12 ± 0.17 TE	12.8 ± 1.5%	4.4 ± 1.1%				
Cl.Nc1c(C(F)(F)C(F)(F)F)n[nH]c1O.O [4g, 4-Amino-3-(pentafluoroethyl)-1H-pyrazol-5-ol hydrate hydrochloride]	0.54 ± 0.03 TE	8.9 ± 1.4%	17.3 ± 1.7%				
O=C1NN=C(C(F)(F)F)/C1=N/O [1e]	0.98 ± 0.03 TE						
O=C1NN=C(C(F)(F)C(F)(F)F)/C1=N/O [1g]	1.87 ± 0.04 TE						
